Measured values as given in paper PMC8343220, “The selectivity of α‐adrenoceptor agonists for the human α1A, α1B, and α1D‐adrenoceptors” (Pharmacology Research & Perspectives, 2021).

What was measured:
human α1B‐adrenoceptor = target: T1, human α1B‐adrenoceptor (Homo sapiens, UniProt P35368); assay: ERK1/2‐phosphorylation (Surefire Alphascreen), CHO‐α1B cells; format: cell-based; conditions: for EC50 / ERK1/2‐phosphorylation % PDBu: for bi‐phasic responses the initial stimulatory part; for EC50: read-out: ERK1/2‐phosphorylation Log EC50 (converted); for ERK1/2‐phosphorylation % PDBu: maximal response as % PDBu response
T1 construct: expressed in transfected cells; host or cells: CHO-K1
T1 sequence (P35368 1-520): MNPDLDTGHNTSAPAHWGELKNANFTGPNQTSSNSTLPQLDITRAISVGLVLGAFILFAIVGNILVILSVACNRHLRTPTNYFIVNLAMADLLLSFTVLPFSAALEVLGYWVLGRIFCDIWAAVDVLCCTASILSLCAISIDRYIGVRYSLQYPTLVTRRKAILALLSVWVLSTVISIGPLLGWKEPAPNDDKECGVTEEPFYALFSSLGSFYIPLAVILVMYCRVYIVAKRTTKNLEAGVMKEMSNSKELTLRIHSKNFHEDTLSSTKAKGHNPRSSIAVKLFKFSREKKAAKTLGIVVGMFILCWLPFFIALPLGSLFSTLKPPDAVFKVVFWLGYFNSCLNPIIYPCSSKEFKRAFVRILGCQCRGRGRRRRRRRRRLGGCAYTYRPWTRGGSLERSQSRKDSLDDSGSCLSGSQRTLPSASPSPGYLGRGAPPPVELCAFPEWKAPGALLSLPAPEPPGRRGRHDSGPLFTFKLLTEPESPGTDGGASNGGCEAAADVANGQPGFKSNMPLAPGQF

[1] = target: T2, human α1D‐adrenoceptor (full length) (Homo sapiens, UniProt P25100); assay: ^3H‐cAMP accumulation in the presence of 10 μM forskolin, CHO‐α1D cells; format: cell-based; conditions: CHO‐α1D cells; for cAMP (in presence of forskolin) Fold increase: fold increase of the forskolin response; for cAMP (in presence of forskolin) Log EC50 / EC50: log values given negative, in presence of forskolin
T2 construct: human α1D‐adrenoceptor (full length) were used; expressed in transfected cells; host or cells: CHO-K1
T2 sequence (P25100 1-572): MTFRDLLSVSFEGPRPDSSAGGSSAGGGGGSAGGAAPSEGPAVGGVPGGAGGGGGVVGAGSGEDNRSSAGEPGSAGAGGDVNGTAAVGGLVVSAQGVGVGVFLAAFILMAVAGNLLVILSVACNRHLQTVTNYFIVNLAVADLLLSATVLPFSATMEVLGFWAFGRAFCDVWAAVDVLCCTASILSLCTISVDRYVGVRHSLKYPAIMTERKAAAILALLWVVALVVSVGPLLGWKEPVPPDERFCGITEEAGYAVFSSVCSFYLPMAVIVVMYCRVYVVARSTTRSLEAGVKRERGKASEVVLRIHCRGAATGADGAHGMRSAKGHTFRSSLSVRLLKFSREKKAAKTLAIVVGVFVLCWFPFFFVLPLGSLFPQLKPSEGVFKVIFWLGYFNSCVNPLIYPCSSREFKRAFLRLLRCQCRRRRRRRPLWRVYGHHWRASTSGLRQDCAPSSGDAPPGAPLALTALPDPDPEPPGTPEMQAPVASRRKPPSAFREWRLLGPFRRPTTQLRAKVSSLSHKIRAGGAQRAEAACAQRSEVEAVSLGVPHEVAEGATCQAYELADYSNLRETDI

[2] = target: T2, human α1D‐adrenoceptor (full length); assay: Intracellular free calcium mobilization, CHO‐α1D cells; format: cell-based; conditions: CHO‐α1D cells; for Log efficacy ratio KD /EC50: intrinsic efficacy ratio, binding KD / calcium EC50; for EC50: read-out: Intracellular calcium release Log EC50 (converted); for Intracellular calcium release % ionomycin: maximal response as % of 10 µM ionomycin
human α1A‐adrenoceptor = target: T3, human α1A‐adrenoceptor (Homo sapiens, UniProt P35348); assay: Intracellular free calcium mobilization, CHO‐α1A cells; format: cell-based; conditions: CHO‐α1A cells; for Log efficacy ratio KD /EC50: binding KD and calcium EC50; for EC50: given as log EC50 (negative), read-out: Intracellular calcium release Log EC50 (converted); for Intracellular calcium release % ionomycin: maximal response as % of 10 µM ionomycin
T3 construct: expressed in transfected cells; host or cells: CHO-K1
T3 sequence (P35348 1-466): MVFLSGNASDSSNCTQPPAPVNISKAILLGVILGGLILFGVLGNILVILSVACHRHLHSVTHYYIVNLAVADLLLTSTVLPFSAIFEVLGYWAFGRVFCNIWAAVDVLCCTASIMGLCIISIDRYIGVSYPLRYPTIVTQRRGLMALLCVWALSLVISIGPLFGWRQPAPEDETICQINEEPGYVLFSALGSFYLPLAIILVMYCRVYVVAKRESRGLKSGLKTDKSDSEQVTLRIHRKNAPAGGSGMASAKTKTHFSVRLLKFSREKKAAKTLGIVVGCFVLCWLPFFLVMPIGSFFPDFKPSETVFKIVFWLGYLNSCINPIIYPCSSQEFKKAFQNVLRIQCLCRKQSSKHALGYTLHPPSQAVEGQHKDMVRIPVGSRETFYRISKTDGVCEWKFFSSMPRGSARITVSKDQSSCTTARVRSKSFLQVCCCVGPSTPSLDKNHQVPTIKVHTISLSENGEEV

[3] = system: parental CHO cell line without any transfected receptors; assay: Intracellular calcium mobilization, parent CHO cells without transfected receptors; format: cell-based, Chinese hamster; conditions: Cricetulus griseus; CHO cells without transfected receptors; response at maximum concentration used (c2), as % of ionomycin (10μM) response; mean ± s.e.m.; read-out: Intracellular calcium release % ionomycin

| SMILES | EC50 (human α1B‐adrenoceptor; CHO‐α1B cells) [nM] | ERK1/2‐phosphorylation % PDBu (human α1B‐adrenoceptor; CHO‐α1B cells) [%] | cAMP (in presence of forskolin) Fold increase [1] | Log efficacy ratio KD /EC50 [2] | EC50 ([2]; log values given negative) [nM] | Intracellular calcium release % ionomycin [2] [%] | Log efficacy ratio KD /EC50 (human α1A‐adrenoceptor) | EC50 (human α1A‐adrenoceptor) [nM] | Intracellular calcium release % ionomycin (human α1A‐adrenoceptor) [%] | EC50 [1] [nM] | ERK1/2‐phosphorylation response in CHO‐α1B cells (human α1B‐adrenoceptor) | ERK1/2‐phosphorylation % PDBu at 100 µM (human α1B‐adrenoceptor; CHO‐α1B cells, response at 100 µM ligand (no EC50 given)) [%] | Intracellular calcium release % Ionomycin at 100 µM ([2]; response at 100 µM ligand (no EC50 given)) [%] | cAMP (in presence of forskolin) Log EC50 [1] | Emax [3] [%] | Intracellular calcium release Log EC50 ([2]; log values given negative) |
| --- | --- | --- | --- | --- | --- | --- | --- | --- | --- | --- | --- | --- | --- | --- | --- | --- |
| c1ccc2c(CC3=NCCN3)cccc2c1 [Naphazoline] | 151 | 71.1 ± 7.2 | No response | 1.24 | 117 | 11.8 ± 2.2 | 2.39 | 1.17 | 50.9 ± 2.6 | – | – | – | – | No response | – | – |
| CC(CCc1ccc(O)cc1)NCCc1ccc(O)c(O)c1 (stereo not drawn) [Dobutamine] | – | – | 1.16 ± 0.06 | 2.26 | 24 | 10.6 ± 1.8 | 2.04 | 4.17 | 31.3 ± 3.6 | 309 | did not stimulate any measurable | 56.3 ± 11.3 | – | – | – | – |
| Clc1ccc2nsnc2c1NC1=NCCN1 [Tizanidine] | 288 | 57.7 ± 5.3 | – | – | – | – | 1.98 | 36.3 | 53.5 ± 1.6 | – | – | – | 2.5 ± 0.8 | – | – | – |
| c1ccc(C2CC2)c(OCC2=NCCN2)c1 [Cirazoline] | 120 | 82.5 ± 8.6 | No response | 1.37 | – | 17.3 ± 3.8 | 3.01 | 0.661 | 58.2 ± 2.0 | – | – | – | – | No response | 4.5 ± 0.8 | −6.90 ± 0.09 |

Now from value to compound, other results behind:

| EC50 (human α1B‐adrenoceptor; CHO‐α1B cells) [nM] | ERK1/2‐phosphorylation % PDBu (human α1B‐adrenoceptor; CHO‐α1B cells) [%] | cAMP (in presence of forskolin) Fold increase [1] | Log efficacy ratio KD /EC50 [2] | EC50 ([2]; log values given negative) [nM] | Intracellular calcium release % ionomycin [2] [%] | Log efficacy ratio KD /EC50 (human α1A‐adrenoceptor) | EC50 (human α1A‐adrenoceptor) [nM] | Intracellular calcium release % ionomycin (human α1A‐adrenoceptor) [%] | EC50 [1] [nM] | ERK1/2‐phosphorylation response in CHO‐α1B cells (human α1B‐adrenoceptor) | ERK1/2‐phosphorylation % PDBu at 100 µM (human α1B‐adrenoceptor; CHO‐α1B cells, response at 100 µM ligand (no EC50 given)) [%] | Intracellular calcium release % Ionomycin at 100 µM ([2]; response at 100 µM ligand (no EC50 given)) [%] | SMILES | cAMP (in presence of forskolin) Log EC50 [1] | Emax [3] [%] | Intracellular calcium release Log EC50 ([2]; log values given negative) |
| --- | --- | --- | --- | --- | --- | --- | --- | --- | --- | --- | --- | --- | --- | --- | --- | --- |
| 2820 | 83.8 ± 5.7 | 1.21 ± 0.04 | 1.56 | 4170 | 22.6 ± 4.7 | 3.43 | 8.71 | 55.9 ± 2.3 | 10500 | – | – | – | COc1ccc(OC)c(C(O)C(C)N)c1 (stereo not drawn) [Methoxamine] | – | – | – |
| 1450 | 92.2 ± 3.9 | 1.19 ± 0.04 | 1.87 | 759 | 23.1 ± 3.8 | 3.14 | 61.7 | 66.9 ± 3.2 | 324 | – | – | – | C[C@H](N)[C@H](O)c1cccc(O)c1 [Metaraminol] | – | – | – |
| 195 | 97.4 ± 2.7 | 1.20 ± 0.7 | 0.53 | 3470 | 28.6 ± 2.0 | 1.95 | 52.5 | 56.8 ± 2.2 | 229 | – | – | – | N=C(N)NC(=O)Cc1c(Cl)cccc1Cl [Guanfacine] | – | 11.5 ± 2.9 | – |
| 302 | 78.8 ± 6.1 | 1.18 ± 0.04 | 1.42 | 1350 | 13.7 ± 1.8 | 3.12 | 77.6 | 58.1 ± 2.1 | 759 | – | – | – | CCNCC(O)c1cccc(O)c1 (stereo not drawn) [Etilefrine] | – | – | – |
